According to ChEMBL document CHEMBL4000251, “Discovery of 4-chloro-2-(2,4-dichloro-6-methylphenoxy)-1-methyl-7-(pentan-3-yl)-1H-benzimidazole, a novel CRF1 receptor antagonist” (Bioorg Med Chem, 2017):

Legend:
[1] = Oral bioavailability in rat at 1 mg/kg; assay type: ADME, organism-based; details: in vivo
[2] = AUC in rat at 1 mg/kg, po; assay type: ADME, organism-based; details: in vivo

bioavailability [1]: 30.8% | AUC [2]: 94.6 ng·h/mL
Structure (SMILES): CCC(CC)c1ccc(Cl)c2nc(Oc3c(C)cc(Cl)cc3Cl)n(C)c12
